From US20030022812A1, “Treating pain by targeting hyperpolarization-activated, cyclic nucleotide-gated channels” (priority 2001, published 2003)
Entries after “also recorded” stand apart in the source; their conditions may differ.

Experiments:
[1] = target: T1, human HCN3 (Homo sapiens, UniProt Q9P1Z3); test: Whole cell patch clamp of HEK293 cells stably expressing human HCN3; type: cell-based; conditions: for reversibility of HCN3 current block: ZD7288: washout of at least 15 min
T1 construct: expressed in transfected cells; host or cells: HEK293 cells stably transfected with hHCN3-pcDNA3.1 Zeo
T1 sequence (Q9P1Z3 1-774): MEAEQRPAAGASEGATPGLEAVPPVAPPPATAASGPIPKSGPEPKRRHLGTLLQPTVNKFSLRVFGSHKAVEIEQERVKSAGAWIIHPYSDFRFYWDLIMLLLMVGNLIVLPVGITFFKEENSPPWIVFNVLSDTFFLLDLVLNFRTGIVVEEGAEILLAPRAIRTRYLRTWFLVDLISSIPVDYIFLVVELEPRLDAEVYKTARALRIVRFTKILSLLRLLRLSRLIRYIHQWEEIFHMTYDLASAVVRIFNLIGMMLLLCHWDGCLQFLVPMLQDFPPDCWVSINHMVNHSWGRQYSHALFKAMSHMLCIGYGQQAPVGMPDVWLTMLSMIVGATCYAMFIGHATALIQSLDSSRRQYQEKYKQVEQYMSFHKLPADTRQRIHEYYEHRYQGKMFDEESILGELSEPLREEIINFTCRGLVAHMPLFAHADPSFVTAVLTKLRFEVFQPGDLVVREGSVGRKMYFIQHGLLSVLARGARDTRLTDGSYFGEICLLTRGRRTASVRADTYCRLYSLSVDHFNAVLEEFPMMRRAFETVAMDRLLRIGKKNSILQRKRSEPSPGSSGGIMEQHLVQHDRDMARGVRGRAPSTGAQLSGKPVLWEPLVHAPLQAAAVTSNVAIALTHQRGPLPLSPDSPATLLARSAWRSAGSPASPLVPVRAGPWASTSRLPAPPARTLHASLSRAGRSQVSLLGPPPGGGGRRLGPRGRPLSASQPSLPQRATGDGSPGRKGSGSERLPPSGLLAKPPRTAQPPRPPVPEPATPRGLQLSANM

[2] = tested on: Ih in large DRG neurons; test: Whole cell patch clamp of Ih in dissociated large L5 DRG neurons of SNL and control rats; type: cell-based, rat; conditions: Cs+ 3 mM extracellular; ZD7288 50 μM
Method: Methods: Rats were prepared according to the above SNL model (L5 ligation). Sham rats were prepared identically, but without resection of the transverse process to avoid nerve trauma, and without nerve ligation. After 7 days, rats were killed by cervical dislocation and the ipsilateral L4 (no ligation) and L5 DRGs were quickly excised with fine forceps under a stereomicroscope and placed in ice cold Tyrode's containing pen/strep antibiotics.
Dissociation and culture of DRG neurons: DRGs from the L5 level of SNL, sham ligated and naive rats, and the L4 level of SNL rats were removed and maintained in ice-cold Tyrode's solution (140 mM NaCl, 4 mM KCl, 2 mM CaCl2, 1.3 mM MgCl2, 10 mM D-glucose, 10 mM HEPES, pH adjusted to 7.4 with NaOH) with additional 2 mM Ca^+2 (Tyrode's) prior to dissociation. […]
Current and voltage signals were detected and filtered at 2 kHz with an Axopatch 1D patch-clamp amplifier (Axon Instruments, Foster City, Calif.), digitally recorded with a DigiData 1200B laboratory interface (Axon Instruments), and PC compatible computer system and stored on magnetic disk for off-line analysis. […]

[3] = tested on: spontaneous firing of Aβ and Aδ neurons; test: In vitro single fiber recording of spontaneous discharges in excised dorsal root/DRG/spinal nerve preparation from SNL rats; type: cell-based, rat
[4] = tested on: CFA-injected rats; test: Tactile allodynia (von Frey) in complete Freund's adjuvant (CFA) paw model of inflammatory pain; type: in vivo, rat; conditions: i.p.; ZD7288 10 mg/kg, ibuprofen 30 mg/kg, morphine 3 mg/kg, gabapentin 100 mg/kg
[5] = tested on: rat carrageenan model of hindpaw inflammation; test: Thermal hyperalgesia (modified Hargreaves apparatus) in rat carrageenan model of hindpaw inflammation; type: in vivo; conditions: 10 mg/kg i.p.
Method: However, blockade of HCN channels with ZD7288 at 10 mg/kg, i.p., had no effect on thermal hyperalgesia (measured using a modified Hargreaves apparatus) in two different models of inflammatory pain: the rat carrageenan model of hindpaw inflammation, and the rat complete Freund's adjuvant (CFA) model of hindpaw inflammation. As shown supra, HCN blockade also had little effect on acute thermally evoked pain in the hot plate test.

[6] = tested on: rat mild thermal injury model; test: Spontaneous pain behaviors in rat mild thermal injury (first-degree burn) model; type: in vivo; conditions: 30 and 60 min after i.p. administration

block of HCN3 hyperpolarization-induced inward currents ([1]; 3 mM CsCl)	SMILES	reversibility of HCN3 current block [1]	block of Ih in large DRG neurons [2]	block of HCN3 hyperpolarization-induced currents ([1]; 50 μM, n=3)	suppression of spontaneous (ectopic) discharges of Aβ fibers ([3]; 100 μM bath application for 5 min)	effect on spontaneous firing of Aδ fiber ([3]; 100 micromolar)	time to complete suppression of ectopic firing, Aβ fiber ([3]; 100 micromolar) [min]	conduction blockade of evoked action potentials ([3]; after application of ZD7288)	suppression of CFA-induced tactile allodynia [4]	effect on thermal hyperalgesia [5]	suppression of spontaneous pain behaviors [6]
completely blocked	[Cl-].[Cs+] [Cs^+, CsCl]	rapidly reversible	efficacious block	–	–	–	–	–	–	–	–
–	CCN(c1ccccc1)c1cc(=NC)n(C)c(C)n1.Cl [ZD7288]	did not reverse	efficacious block	98+/−2%	complete suppression; also recorded: completely suppressed	attenuation of firing	3 to 4	no conduction blockade	suppressed allodynia; also recorded: markedly suppressed	no effect	near complete suppression
